In patent publication US20030078251A1, “Benzoxazepinones and their use as squalene synthase inhibitors” (priority 2000, published 2003):

Experiments:
squalene synthase = molecular target: T1, squalene synthase (Homo sapiens, UniProt P37268); experiment: Squalene synthase inhibiting activity (Test Example 1); assay type: biochemical; conditions: enzyme solution from human hepatic cancer cell HepG2; 5 μM [1-3H] farnesyl pyrophosphate, 37° C., 45 minutes; read-out: Inhibiting activity (IC50, 10^−9M)
T1 construct: endogenous in cells; host or cells: HepG2 (human hepatic cancer cells); sediment of the 105000 x g centrifugation (microsomal fraction)
T1 sequence (P37268 1-417): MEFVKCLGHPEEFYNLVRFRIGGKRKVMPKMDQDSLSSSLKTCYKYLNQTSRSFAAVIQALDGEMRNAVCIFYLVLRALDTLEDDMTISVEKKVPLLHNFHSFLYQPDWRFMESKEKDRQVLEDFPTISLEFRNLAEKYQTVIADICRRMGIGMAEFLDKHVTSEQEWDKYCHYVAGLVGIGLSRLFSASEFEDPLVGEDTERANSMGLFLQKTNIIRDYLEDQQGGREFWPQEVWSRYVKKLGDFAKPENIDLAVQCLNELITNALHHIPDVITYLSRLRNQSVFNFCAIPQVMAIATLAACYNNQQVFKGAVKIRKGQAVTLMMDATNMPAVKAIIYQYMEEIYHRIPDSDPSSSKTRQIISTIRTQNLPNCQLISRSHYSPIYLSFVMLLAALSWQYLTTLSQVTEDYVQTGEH
Method: Squalene Synthase Inhibiting Activity
The squalene synthase inhibiting activity was measured using an enzyme solution obtained according to a preparing method described below as follows:
That is, an enzyme solution (protein 0.8 μg) prepared according to the following preparing method was added to a solution containing 5 μM [1-^3H] farnesyl pyrophosphate (specific activity […]), 1 mM NADPH (reduced type nicotinamide adenine dinucleotide phosphate), 5 mM MgCl2, 6 mM glutathione, 100 mM potassium phosphate buffer (pH 7.4) and a test drug (added as an aqueous solution or DMSO solution)(total amount 50 μl), which was reacted at 37° C. for 45 minutes. 150 μl of a mixed solution of chloroform and methanol (1:2) was added to stop the reaction, and 50 μl of chloroform and 50 μl of a 3N sodium hydroxide solution were added. 50 μl of the chloroform layer (lower layer) containing the reaction product, a main component of which is squalene, and 3 ml of toluene series liquid scintillator were mixed, and the radioactivity thereof was measured by a liquid scintillation counter.
The squalene synthase inhibiting activity was shown by the concentration at which 50% of the radioactivity […] into the chloroform layer (IC50, molar concentration (M)).
Preparation of Human Enzyme Solution
Human hepatic cancer cell HepG2 (about 1×10^9 cells) was grown in Dulbecco's modified Eagle medium (37° C., in the presence of 5%CO2) containing 10% bovine fetal serum, the resulting cells were suspended in 10 ml of ice-cooled buffer [100 mM potassium phosphate buffer (pH 7.4), 30 mM nicotinamide, 2.5 mM MgCl2], and ruptured by the ultrasonication (30 seconds, 2 times). The resulting sonicate was centrifuged at 10000× g for 20 minutes (4° C.). The resulting supernatant was centrifuged at 105000× g for 90 minutes (4° C.), then the sediment was suspended in an ice-cooled 100 mM potassium phosphate buffer (pH 7.4), and centrifuged again at 105000× g for 90 minutes (4° C.). This was suspended in an ice-cooled 100 mM potassium phosphate buffer (pH 7.4) (protein concentration about 4 mg/ml), which was used as an enzyme solution.

| IC50 (squalene synthase) | melting point | SMILES |
| --- | --- | --- |
| 54 nM | 135 to 137 °C | CCCS(=O)(=O)NC(=O)C[C@H]1O[C@H](c2cccc(OC)c2OC)c2cc(Cl)ccc2N(CC(C)(C)CO)C1=O [Example 2, (3R,5S)-N-propanesulfonyl-7-chloro-5-(2,3-dimethoxyphenyl)-1-(3-hydroxy-2,2-dimethylpropyl)-2-oxo-1,2,3,5-tetrahydro-4,1-benzoxazepine-3-acetamide] |
| 16 nM | 154 to 155 °C | COc1cccc([C@H]2O[C@H](CC(=O)Nc3cc(CCC(=O)O)ccc3C)C(=O)N(CC(C)(C)CO)c3ccc(Cl)cc32)c1OC [Example 55, 3-[3-[[(3R,5S)-7-chloro-5-(2,3-dimethoxyphenyl)-1-(3-hydroxy-2,2-dimethylpropyl)-2-oxo-1,2,3,5-tetrahydro-4,1-benzoxazepin-3-yl]acetyl]amino-4-methylphenyl]propionic Acid] |
| 40 nM | 151 to 152 °C | COc1cccc([C@H]2O[C@H](CC(=O)Nc3cc(CCC(=O)O)ccc3F)C(=O)N(CC(C)(C)CO)c3ccc(Cl)cc32)c1OC [Example 53, 3-[3-[[[(3R,5S)-7-chloro-5-(2,3-dimethoxyphenyl)-1-(3-hydroxy-2,2-dimethylpropyl)-2-oxo-1,2,3,5-tetrahydro-4,1-benzoxazepin-3-yl]acetyl]amino]-4-fluorophenyl]propionic Acid] |
| 21 nM | 129 to 132 °C | COc1cccc([C@H]2O[C@H](CC(=O)NCc3ccc(CC(=O)O)cc3)C(=O)N(CC(C)(C)CO)c3ccc(Cl)cc32)c1OC [Example 61, 4-[[[(3R,5S)-7-chloro-5-(2,3-dimethoxyphenyl)-1-(3-hydroxy-2,2-dimethylpropyl)-2-oxo-1,2,3,5-tetrahydro-4,1-benzoxazepin-3-yl]acetyl]aminomethyl]phenylacetic acid] |
| 120 nM | 141 to 144 °C | COc1cccc([C@H]2O[C@H](CC(=O)Nc3cccc(CCC(=O)O)c3)C(=O)N(CC(C)(C)CO)c3ccc(Cl)cc32)c1OC [Example 35, 3-[3-[[(3R,5S)-7-chloro-5-(2,3-dimethoxyphenyl)-1-(3-hydroxy-2,2-dimethylpropyl)-2-oxo-1,2,3,5-tetrahydro-4,1-benzoxazepin-3-yl]acetyl]aminophenyl]propionic Acid] |
| 10 nM | 184 to 186 °C | COc1cccc([C@H]2O[C@H](CC(=O)N[C@H](C)C(=O)O)C(=O)N(CC(C)(C)C)c3ccc(Cl)cc32)c1OC [Example 18, (2R)-2-[[(3R,5S)-7-chloro-5-(2,3-dimethoxyphenyl)-1-neopentyl-2-oxo-1,2,3,5-tetrahydro-4,1-benzoxazepin-3-yl]acetyl]aminopropionic Acid] |
| 9.1 nM | 125 to 128 °C | COc1cccc([C@H]2O[C@H](CC(=O)NCc3ccoc3C(=O)O)C(=O)N(CC(C)(C)CO)c3ccc(Cl)cc32)c1OC [Example 30, 3-[[[[(3R,5S)-7-chloro-5-(2,3-dimethoxyphenyl)-1-(2,2-dimethyl-3-hydroxypropyl)-2-oxo-1,2,3,5-tetrahydro-4,1-benzoxazepin-3-yl]acetyl]amino]methyl]furan-2-carboxylic acid] |
